Reference: US12049450B2, “Pyridyloxy-carboxylate derivative and preparation method therefor, herbicidal composition, and use” (Qingdao Kingagroot Chemical Compound Co., Ltd., priority 2018, dated 2024)

Assays:
Experiment in all cases: Post-emergence test experiment (greenhouse pot, spray at 2-3 leaf stage)
Assay type in all cases: in vivo
Settings in all cases: 1000 g/ha; post-emergence spray at 2-3 leaf stage; assessed after 3 weeks; fresh weight inhibition rate
Galium spurium = system: Galium spurium
Procedure, shortened: (§1)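 Activity graded levels 0-5 by fresh-weight inhibition (level 5 above 85%, level 0 below 5%), assessed 3 weeks after treatment. Plants grown in greenhouse pots were sprayed post-emergence at 2-3 leaves using acetone/tween-80 solutions with methyl oleate synergist (1.5 L/ha).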

Digitaria sanguinalis = system: Digitaria sanguinalis
Procedure, shortened: as §1

Monochoria vaginalis = system: Monochoria vaginalis
Procedure, shortened: as §1

Abutilon theophrasti = system: Abutilon theophrasti
Procedure, shortened: as §1

Echinochloa crusgalli = system: Echinochloa crusgalli
Procedure, shortened: as §1

| SMILES | Activity level (growth inhibition rate) Galium spurium (Galium spurium) | Activity level (growth inhibition rate) Digitaria sanguinalis (Digitaria sanguinalis) | Activity level (growth inhibition rate) Monochoria Vaginalis (Monochoria vaginalis) | Activity level (growth inhibition rate) Abutilon theophrasti (Abutilon theophrasti) | Activity level (growth inhibition rate) Echinochloa crusgalli (Echinochloa crusgalli) |
| --- | --- | --- | --- | --- | --- |
| CC(Oc1nc(F)c(Cl)c(N)c1Cl)C(=O)OCc1ccc2ncsc2c1 (stereo not shown) [Compound 180] | 5 (Level 5: the growth inhibition rate is greater than 85%) | 5 (Level 5: the growth inhibition rate is greater than 85%) | 5 (Level 5: the growth inhibition rate is greater than 85%) | 5 (Level 5: the growth inhibition rate is greater than 85%) | 5 (Level 5: the growth inhibition rate is greater than 85%) |
| CC(Oc1nc(F)c(Cl)c(N)c1Cl)C(=O)SCc1ccc(Br)cc1 (stereo not shown) [Compound 231] | 5 (Level 5: the growth inhibition rate is greater than 85%) | 5 (Level 5: the growth inhibition rate is greater than 85%) | 5 (Level 5: the growth inhibition rate is greater than 85%) | 5 (Level 5: the growth inhibition rate is greater than 85%) | 5 (Level 5: the growth inhibition rate is greater than 85%) |
| CC(Oc1nc(F)c(Cl)c(N)c1Cl)C(=O)OCc1cccc(C#N)c1 (stereo not shown) [Compound 201] | 5 (Level 5: the growth inhibition rate is greater than 85%) | 5 (Level 5: the growth inhibition rate is greater than 85%) | 5 (Level 5: the growth inhibition rate is greater than 85%) | 5 (Level 5: the growth inhibition rate is greater than 85%) | 5 (Level 5: the growth inhibition rate is greater than 85%) |
| CC(Oc1nc(F)c(Cl)c(N)c1Cl)C(=O)OCc1cnccn1 (stereo not shown) [Compound 121] | 5 (Level 5: the growth inhibition rate is greater than 85%) | 5 (Level 5: the growth inhibition rate is greater than 85%) | 5 (Level 5: the growth inhibition rate is greater than 85%) | 5 (Level 5: the growth inhibition rate is greater than 85%) | 5 (Level 5: the growth inhibition rate is greater than 85%) |
| CNc1c(Cl)c(F)nc(OC(C)C(=O)OCc2ccccc2)c1Cl (stereo not shown) [Compound 190] | 5 (Level 5: the growth inhibition rate is greater than 85%) | 5 (Level 5: the growth inhibition rate is greater than 85%) | 5 (Level 5: the growth inhibition rate is greater than 85%) | 5 (Level 5: the growth inhibition rate is greater than 85%) | 5 (Level 5: the growth inhibition rate is greater than 85%) |
| CC(Oc1nc(F)c(Cl)c(N)c1Cl)C(=O)SCc1cccc(C(=O)O)c1 (stereo not shown) [Compound 87] | 5 (Level 5: the growth inhibition rate is greater than 85%) | 5 (Level 5: the growth inhibition rate is greater than 85%) | 5 (Level 5: the growth inhibition rate is greater than 85%) | 5 (Level 5: the growth inhibition rate is greater than 85%) | 5 (Level 5: the growth inhibition rate is greater than 85%) |
| CC(Oc1nc(F)c(Cl)c(N)c1Cl)C(=O)OCc1ccc2cnccc2c1 (stereo not shown) [Compound 184] | 5 (Level 5: the growth inhibition rate is greater than 85%) | 5 (Level 5: the growth inhibition rate is greater than 85%) | 5 (Level 5: the growth inhibition rate is greater than 85%) | 5 (Level 5: the growth inhibition rate is greater than 85%) | 5 (Level 5: the growth inhibition rate is greater than 85%) |
| CC(Oc1nc(F)c(Cl)c(N)c1Cl)C(=O)OCc1cccnn1 (stereo not shown) [Compound 122] | 5 (Level 5: the growth inhibition rate is greater than 85%) | 5 (Level 5: the growth inhibition rate is greater than 85%) | 5 (Level 5: the growth inhibition rate is greater than 85%) | 5 (Level 5: the growth inhibition rate is greater than 85%) | 5 (Level 5: the growth inhibition rate is greater than 85%) |
| CC(Oc1nc(F)c(Cl)c(N)c1Cl)C(=O)OCc1cncnc1 (stereo not shown) [Compound 124] | 5 (Level 5: the growth inhibition rate is greater than 85%) | 5 (Level 5: the growth inhibition rate is greater than 85%) | 5 (Level 5: the growth inhibition rate is greater than 85%) | 5 (Level 5: the growth inhibition rate is greater than 85%) | 5 (Level 5: the growth inhibition rate is greater than 85%) |
| CC(=O)Nc1c(Cl)c(F)nc(OC(C)C(=O)OCc2ccccc2)c1Cl (stereo not shown) [Compound 192] | 5 (Level 5: the growth inhibition rate is greater than 85%) | 5 (Level 5: the growth inhibition rate is greater than 85%) | 5 (Level 5: the growth inhibition rate is greater than 85%) | 5 (Level 5: the growth inhibition rate is greater than 85%) | 5 (Level 5: the growth inhibition rate is greater than 85%) |
| CC(Oc1nc(F)c(Cl)c(N)c1Cl)C(=O)OCc1cccc(CC(N)=O)c1 (stereo not shown) [Compound 101] | 5 (Level 5: the growth inhibition rate is greater than 85%) | 5 (Level 5: the growth inhibition rate is greater than 85%) | 5 (Level 5: the growth inhibition rate is greater than 85%) | 5 (Level 5: the growth inhibition rate is greater than 85%) | 5 (Level 5: the growth inhibition rate is greater than 85%) |
| CC(Oc1nc(F)c(Cl)c(N)c1Cl)C(=O)OCc1ccco1 (stereo not shown) [Compound 212] | 5 (Level 5: the growth inhibition rate is greater than 85%) | 5 (Level 5: the growth inhibition rate is greater than 85%) | 5 (Level 5: the growth inhibition rate is greater than 85%) | 5 (Level 5: the growth inhibition rate is greater than 85%) | 5 (Level 5: the growth inhibition rate is greater than 85%) |
| CC(Oc1nc(F)c(Cl)c(N)c1Cl)C(=O)OCc1ccc(F)cc1 (stereo not shown) [Compound 199] | 5 (Level 5: the growth inhibition rate is greater than 85%) | 5 (Level 5: the growth inhibition rate is greater than 85%) | 5 (Level 5: the growth inhibition rate is greater than 85%) | 5 (Level 5: the growth inhibition rate is greater than 85%) | 5 (Level 5: the growth inhibition rate is greater than 85%) |
| CC(Oc1nc(F)c(Cl)c(N)c1Cl)C(=O)SCc1ccccc1C#N (stereo not shown) [Compound 224] | 5 (Level 5: the growth inhibition rate is greater than 85%) | 5 (Level 5: the growth inhibition rate is greater than 85%) | 5 (Level 5: the growth inhibition rate is greater than 85%) | 5 (Level 5: the growth inhibition rate is greater than 85%) | 5 (Level 5: the growth inhibition rate is greater than 85%) |
| CC(Oc1nc(F)c(Cl)c(N)c1Cl)C(=O)OCc1ccccc1Br (stereo not shown) [Compound 205] | 5 (Level 5: the growth inhibition rate is greater than 85%) | 5 (Level 5: the growth inhibition rate is greater than 85%) | 5 (Level 5: the growth inhibition rate is greater than 85%) | 5 (Level 5: the growth inhibition rate is greater than 85%) | 5 (Level 5: the growth inhibition rate is greater than 85%) |
| CC(Oc1nc(F)c(Cl)c(N)c1Cl)C(=O)SCCc1ncsn1 (stereo not shown) [Compound 165] | 5 (Level 5: the growth inhibition rate is greater than 85%) | 5 (Level 5: the growth inhibition rate is greater than 85%) | 5 (Level 5: the growth inhibition rate is greater than 85%) | 5 (Level 5: the growth inhibition rate is greater than 85%) | 5 (Level 5: the growth inhibition rate is greater than 85%) |
| CC(Oc1nc(F)c(Cl)c(N)c1Cl)C(=O)OCc1cccs1 (stereo not shown) [Compound 214] | 5 (Level 5: the growth inhibition rate is greater than 85%) | 5 (Level 5: the growth inhibition rate is greater than 85%) | 5 (Level 5: the growth inhibition rate is greater than 85%) | 5 (Level 5: the growth inhibition rate is greater than 85%) | 5 (Level 5: the growth inhibition rate is greater than 85%) |
